Patent US20260306640A1, “TECHNOLOGIES TARGETING CELL STATES” (Auron Therapeutics, Inc., priority 2023, published 2026)
Where two headings read alike, the source gives them in different places.

Key:
NCI-H1048 cells = assay: Cell growth inhibition, SCLC cell line NCI-H1048 (cell count, day 11); assay type: cell-based, human; settings: Homo sapiens
From the text: (§1) Among other things, provided technologies are useful for treating various diseases, disorders, or conditions. For example, in some embodiments, provided technologies are useful for treating cancer as confirmed in the present Example. […] In some embodiments, provided technologies can inhibit cell proliferation. In some embodiments, the present disclosure provides technologies for assessing various technologies, e.g., compounds, compositions, or methods. Among other things, the present Example provides technologies, e.g., cell growth inhibition assay, for assessing various technologies. […] In some embodiments, the following cell growth inhibition methods are utilized to assess provided technologies.
SCLC: SCLC cell lines NCI-H1048 and NCI-H1876 were cultured in DMEM F12 media with 5% FBS, 1% Penicillin/Streptomycin and HITES supplement (Hydrocortisone, Insulin, Transferrin, Estradiol and Sodium Selenite). NCI-H1048 cells were plated at 10,000 cells/well of a 24-well plate and NCI-H1876 cells were plated at 20,000 cells/well of a 96-well plate. Compound and media were replenished every two days out to day 11 and 10 respectively. Cells were then trypsinized and counted using either hemocytometer or an automated Countess cell counter.
(§2) In some assessments, for cell growth inhibition, cells, e.g., MOLM13, NCI-H1048, and LASCPC-01 cells, were counted using a hemocytometer or automated cell counting in triplicates. In some assessments, proliferation in NEPC organoids as measured with Cell Titer Glo reagent (Promega). Growth inhibition was determined relative to vehicle control.

KAT2B [1] = molecular target: T1, KAT2B (Homo sapiens, UniProt Q92831); assay: KAT2B degradation, Western Blot (Jess), NCI-H1048 cells; assay type: cell-based; design: degrader, Western blot (Jess)
T1 sequence (Q92831 whole entry): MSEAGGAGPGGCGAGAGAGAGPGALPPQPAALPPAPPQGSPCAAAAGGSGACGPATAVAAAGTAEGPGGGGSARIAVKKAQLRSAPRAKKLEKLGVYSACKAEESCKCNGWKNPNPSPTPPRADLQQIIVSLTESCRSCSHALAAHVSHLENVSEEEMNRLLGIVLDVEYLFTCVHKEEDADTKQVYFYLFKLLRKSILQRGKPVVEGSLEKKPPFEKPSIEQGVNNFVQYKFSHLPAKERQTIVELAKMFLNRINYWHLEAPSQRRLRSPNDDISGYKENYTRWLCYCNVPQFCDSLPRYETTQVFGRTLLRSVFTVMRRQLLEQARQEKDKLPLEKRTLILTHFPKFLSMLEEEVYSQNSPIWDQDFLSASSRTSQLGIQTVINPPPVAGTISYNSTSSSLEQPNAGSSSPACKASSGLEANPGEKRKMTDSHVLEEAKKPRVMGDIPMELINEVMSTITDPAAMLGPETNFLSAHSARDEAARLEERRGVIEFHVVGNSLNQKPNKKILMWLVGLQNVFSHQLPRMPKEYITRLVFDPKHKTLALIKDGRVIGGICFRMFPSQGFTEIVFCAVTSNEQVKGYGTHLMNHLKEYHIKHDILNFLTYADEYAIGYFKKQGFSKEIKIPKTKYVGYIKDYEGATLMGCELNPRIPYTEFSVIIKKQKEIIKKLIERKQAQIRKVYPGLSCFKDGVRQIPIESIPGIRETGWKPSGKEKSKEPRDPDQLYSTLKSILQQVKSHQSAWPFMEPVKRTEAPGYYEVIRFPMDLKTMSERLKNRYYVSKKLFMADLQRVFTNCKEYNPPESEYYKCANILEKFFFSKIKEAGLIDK
How it was run: (§3)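 DC50 came from protein loss relative to DMSO, measured by Jess capillary immunoblot of RIPA lysates with chemiluminescence read-out. Before lysis, NCI-H1048 cells in 5% FBS HITES medium were exposed to compound for 24 h at 37° C.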

KAT2A [2] = molecular target: T2, KAT2A (Homo sapiens, UniProt Q92830); assay: KAT2A degradation, Western Blot (Jess), MOLM-13 cells; assay type: cell-based; design: degrader, Western blot
T2 sequence (Q92830 whole entry): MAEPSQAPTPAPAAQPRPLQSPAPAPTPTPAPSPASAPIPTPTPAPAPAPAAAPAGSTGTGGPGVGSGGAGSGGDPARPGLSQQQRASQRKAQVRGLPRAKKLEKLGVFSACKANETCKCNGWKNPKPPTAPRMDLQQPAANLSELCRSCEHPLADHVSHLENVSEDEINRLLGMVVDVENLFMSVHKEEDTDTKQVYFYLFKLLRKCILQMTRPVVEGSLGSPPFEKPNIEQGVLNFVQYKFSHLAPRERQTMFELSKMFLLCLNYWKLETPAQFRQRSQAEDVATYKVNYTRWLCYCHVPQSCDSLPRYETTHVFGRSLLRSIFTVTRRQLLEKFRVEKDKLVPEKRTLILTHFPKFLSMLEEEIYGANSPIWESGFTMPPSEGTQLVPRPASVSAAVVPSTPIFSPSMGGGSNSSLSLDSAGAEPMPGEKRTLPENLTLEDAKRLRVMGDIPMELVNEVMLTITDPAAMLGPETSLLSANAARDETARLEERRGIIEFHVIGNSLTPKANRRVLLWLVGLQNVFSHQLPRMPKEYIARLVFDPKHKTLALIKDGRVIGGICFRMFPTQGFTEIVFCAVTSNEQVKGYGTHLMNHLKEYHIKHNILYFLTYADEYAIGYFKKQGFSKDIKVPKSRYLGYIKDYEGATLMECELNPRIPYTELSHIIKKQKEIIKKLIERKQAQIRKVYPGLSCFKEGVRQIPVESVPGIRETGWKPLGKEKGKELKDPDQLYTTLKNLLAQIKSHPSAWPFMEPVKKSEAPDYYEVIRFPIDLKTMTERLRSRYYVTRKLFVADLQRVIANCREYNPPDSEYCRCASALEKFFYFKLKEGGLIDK
How it was run: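 MOLM-13 cells in RPMI 1640/20% FBS were treated with compound for 24 h at 37 °C. RIPA lysates (4 μg) were run on a capillary Western (Jess) with anti-KAT2A antibody and chemiluminescent detection. DC50 comes from percent protein reduction versus DMSO control.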

KAT2A [3] = molecular target: T2, KAT2A; assay: KAT2A degradation, Western Blot (Jess), NCI-H1048 cells; assay type: cell-based; design: degrader, Western blot (Jess)
How it was run: as §3

MOLM-13 cells = assay: Cell growth inhibition, AML cell line MOLM-13 (CyQuant, day 7); assay type: cell-based; settings: Homo sapiens
From the text: as §1
AML: AML cell line MOLM-13 cells were cultured in RPMI+15% FBS and were plated at 500 cells/well in 100 uL media in a U-bottom 96-well plate. Compounds were dilute to 3×final in full media and 50 uL were added to corresponding wells. Compound and media were replenished on days 2 and 5. On day 7, cells were transferred to a 96-well black bottom plate and CyQuant was performed per manufacturer's instructions.
as §2

KAT2B [4] = molecular target: T1, KAT2B; assay: KAT2B degradation, Western Blot, MOLM-13 cells; assay type: cell-based; design: degrader, Western blot; settings: MOLM-13, KAT2B
Protocol: MOLM-13 cells were maintained at 37° C. in 5% CO2 and 90% humidity in RPMI 1640 supplemented with 20% fetal bovine serum (FBS) and 1× penicillin/streptomycin. Cells were plated in full media at 1-2 million cells/2 mL in a 6-well tissue culture treated plate with or without compounds for 24 h at 37° C. in 5% CO2.
MOLM-13 cells or NCI-H1048 cells were washed with PBS, then lysed with RIPA buffer containing 1×protease and phosphatase inhibitors (SantaCruz Biotechnologies Cat #sc-24948A). Protein was isolated by centrifugation at 12,000×g for 10 minutes at 4° C. and supernatant was collected. Protein was quantified via Bradford assay. Samples were diluted to 4 μg lysate in 16 μL RIPA buffer and then 4 μL of Jess Sample Buffer. Samples were heated at 95° C. for 5 minutes. Samples were loaded onto 12-230 kDa Jess™ Separation Module, 8×25 capillary cartridges (SM-W004, Biotechne). Antibodies loaded were: Primary antibody for KAT2A (GCN5L2 (C26A10) Rabbit mAb (3305, CST)) and for KAT2B (PCAF (C14G9)) Rabbit mAb (3378, CST) at 1:1000 and Anti-Rabbit Detection Module for Jess™ (Cat No #DM-001, Biotechne). Signal was detected by chemiluminescence.
DC50 values were determined from percent reduction of protein as compared to the DMSO control.

[5] = 264 h, NCI-H1048, day 11, cell count, read-out: H1048 GI50
[6] = NCI-H1048 cells, KAT2B, 24 h, Western Blot, vs DMSO, read-out: KAT2B NCI-H1048 DC50
[7] = MOLM-13 cells, KAT2A, 24 h, Western Blot, vs DMSO, read-out: KAT2A MOLM-13 DC50
[8] = NCI-H1048 cells, KAT2A, 24 h, Western Blot, vs DMSO, read-out: KAT2A NCI-H1048 DC50
[9] = 168 h, MOLM-13, day 7, CyQuant, read-out: MOLM13 GI50

GI50 (NCI-H1048 cells; [5]) [nM] | DC50 (KAT2B [1]; [6]) [nM] | DC50 (KAT2A [2]; [7]) [nM] | DC50 (KAT2A [3]; [8]) [nM] | GI50 (MOLM-13 cells; [9]) [nM] | SMILES | further results
11 | 1 to 30 | < 1 | < 1 | 1.7 | CN1C[C@H](Nc2cnn(C)c(=O)c2Br)C[C@H](c2ccc(CN3CCC(Oc4ccc(C5CCC(=O)NC5=O)cc4)CC3)cc2)C1 (some centres unmarked) [Compound 86] | –
– | – | – | – | – | CN1C[C@H](Nc2cnn(C)c(=O)c2Br)C[C@H](c2ccc(C(=O)N(C)CCCN(C)c3ccc(CCCOc4cccc5c4C(=O)N(C4CCC(=O)NC4=O)C5=O)cc3)cc2)C1 (some centres unmarked) [Compound Ref-1, reference compound] | EC90 (KAT2B [4]; 24 h, read-out: DC90 (the source's name)): 1.8 nM; DC50 (KAT2B [4]): 0.075 nM; GI50 (NCI-H1048 cells; NCI-H1048, comparison table with Ref-1, read-out: Growth GI50): 32 nM; EC90 (KAT2B [1]; 24 h, NCI-H1048, KAT2B, read-out: DC90 (the source's name)): 1 nM; DC50 (KAT2B [1]; NCI-H1048, KAT2B, read-out: DC50): 0.1 nM; EC90 (KAT2A [2]; 24 h, MOLM-13, KAT2A, read-out: DC90 (the source's name)): 51 nM; DC50 (KAT2A [2]; MOLM-13, KAT2A, read-out: DC50): 2.2 nM; EC90 (KAT2A [3]; 24 h, NCI-H1048, KAT2A, read-out: DC90 (the source's name)): 16 nM; DC50 (KAT2A [3]; NCI-H1048, KAT2A, read-out: DC50): 1.5 nM; GI50 (MOLM-13 cells; MOLM-13, comparison table with Ref-1, read-out: Growth GI50): 60 nM
1.5 | < 1 | < 1 | < 1 | 0.9 | CN1C[C@H](Nc2cnn(C)c(=O)c2Br)C[C@H](c2ccc(C(=O)N3CCC4(CC3)CCN(c3ccc(C5CCC(=O)NC5=O)cc3)CC4)cc2)C1 (stereo partly drawn) [Compound 90, 3-[4-[3-[4-[(3R,5R)-5-[(5-bromo-1-methyl-6-oxo-pyridazin-4-yl)amino]-1-methyl-3-piperidyl]benzoyl]-3,9-diazaspiro[5.5]undecan-9-yl]phenyl]piperidine-2,6-dione] | –
60 | 1 to 30 | – | < 1 | 20 | COc1cc(C2CCC(=O)NC2=O)ccc1N1CCC2(CCN(C(=O)c3ccc([C@H]4C[C@@H](Nc5cnn(C)c(=O)c5Br)CN(C)C4)cc3)CC2)CC1 (some centres unmarked) [Compound 238] | –
2 | – | – | – | 5.2 | CN1C[C@H](Nc2cnn(C)c(=O)c2Br)C[C@H](c2ccc(C(=O)N3CCN(Cc4ccc(C(=O)Nc5ccc6c(c5)CN(C5CCC(=O)NC5=O)C6=O)cc4)CC3)cc2)C1 (some centres unmarked) [Compound 2-15] | –
